Data set [1] addresses GABAA receptors (rat cerebral cortex P2 homogenate). The experiment in a line: [35S]TBPS binding assay. The following applies: inhibition of [35S]TBPS binding. The procedure:
The cerebral cortex from male Sprague-Dawley rats (weighing 160-200 g) was removed immediately after decapitation and dissected over ice. A P2 homogenate was prepared for binding assay as previously described (Gee, 1987a). The tissue was homogenized in 0.32 M sucrose (J. T. Baker Chemical Co., Phillipsburg, N.J.) with a Teflon-coated pestle, followed by centrifugation at 1,000×g for 10 min. The supernatant was collected and centrifuged at 9,000×g for 20 min. The resultant P2 pellet was resuspended in ice-cold 50 mM sodium potassium phosphate buffer (pH 7.4) containing 200 mM NaCl and used immediately in binding assays. A 2 nM concentration of [^35S]TBPS (86 Ci/mmol; New England Nuclear, Boston, Mass.) was incubated with 100 μL of tissue homogenate (10% w/v) in the presence or absence of 5 μM GABA (Sigma Chem. Co., St. Louis, Mo.) and 5 μL aliquots of test drug dissolved in dimethyl sulfoxide (Sigma Chem. Co.) (≦10 μL of solvent used in all assays). At the concentration (≦1%) used, dimethyl sulfoxide had no effect on specific [^35S]TBPS binding. […] Filter-bound radioactivity was quantified by liquid scintillation spectrophotometry. The data were evaluated by nonlinear regression (GraphPad, Inc., San Diego, Calif.) to obtain IC50 (concentration at which half-maximal inhibition of radioligand occurs) and Imax (maximum percent inhibition) values. […]

Data set [2] relates to mice. The experiment in a line: Mouse elevated plus maze (EPM). The class given is in vivo. The settings on record: dosed in 20% 2-hydroxypropyl-β-cyclodextrin. The protocol: Mouse Elevated Plus Maze (EPM)
Mice were group housed and handled daily for 3 days prior to testing in the EPM (Coulbourn Instruments). Testing was conducted in a dimly lit room, with two 60 W bulbs pointed at the ceiling near the open arms (4 ft. above the maze). The maze was cleaned between each run. Automated counting of time spent in the open arms of the maze was achieved by using Med Associates (St. Albans, Vt.) MedPC-IV program. Data were analyzed with GraphPad Prism 4.0 for statistical significance by one-way ANOVA with Dunnett's multiple comparison post-hoc test. Compounds that increase the amount of time the animals spend in the open arms have activity as anxiolytics.

Data set [3] concerns pentylenetetrazole-induced seizures. The data set can be described thus: Anticonvulsant assay, protection from pentylenetetrazole-induced seizures. The data set is classed as in vivo. The settings on record: oral dosing in 20% 2-hydroxypropyl-β-cyclodextrin; dose protecting half the animals from seizures. The protocol:
The ability of compounds to protect against pentylenetetrazole-induced seizures was carried out as described by Hogenkamp, et al. J. Med. Chem. 2007, 50, 3369. The dose that protected half the animals from seizures was determined as the ED50.

The test system of data set [4] is mice. The experiment in a line: Mouse rotarod (RR). The data set is classed as in vivo. The settings on record: dosed in 20% 2-hydroxypropyl-β-cyclodextrin. The procedure:
Naïve mice were trained on a RR (Columbus Instruments, Columbus, Ohio) in 4 sessions (6-15 rpm) over 2 days to successfully complete the 2-min trial prior to final testing (6 rpm). On day 3, the mice were administered compound and tested over a period of 360 min at various intervals. The percentage of animals remaining on the RR throughout each 2-min trial was recorded. The results that coincided with the time of peak effect were analyzed by the method of Litchfield and Wilcoxon (Litchfield and Wilcoxon, J. Pharmacol. Exp. Ther., 1949, 96, 99) to determine the AD50 (ataxic half-maximal dose where half of the mice fail the RR assay). Compounds that have activity in the rotarod assay can indicate CNS depressive activity and sedative activity.
A general note: The rotarod test checks motor coordination on a turning rod.

Data set [5] concerns the target T1, human α1β1γ2 GABAA receptors (Homo sapiens, UniProt P14867+P18505).
T1 construct: expressed in transfected cells
The experiment in a line: Oocyte electrophysiology, modulation of EC10 GABA response. The class given is cell-based. The following applies: oocytes expressing human α1β1γ2 GABAA receptors; % modulation above EC10 GABA control. The procedure: Preparation, micro-injection and maintenance of oocytes was as previously described (Ng et al., Proc. Natl. Acad. Sci., 2007, 104, 8059). Individual oocytes were injected with 0.005-50 ng of each subunit mRNA as follows (ratio of subunits in parentheses): GABAA receptor subunit combinations (α1,2, or 3, β1,2, or 3, γ2L or δ): (5:1:1). Stage IV-V oocytes were plucked from ovary membranes, defolliculized with collagenase Type IA (Worthington's) for 45 min and rinsed 10 times with Ringer's salt solution. cRNA was injected at 50 nL. Oocytes were tested 3-28 days after injection (n=3-7 per compound), in Ringer's salt solution by linear drug application method using electrodes with […] tip resistance. Changes in membrane current were passed through a pre-amp, then through a T200 patch amplifier (Axon Instruments), with a bandpass filter 2 kHz. pClamp software was used to monitor, record, and analyze data. All compounds were tested with a 30 second pretreatment prior to co-application with EC10 (concentration of GABA that evokes 10% of the maximum response) GABA for the control response. Responses in presence of test compound were calculated as % modulation above control. Concentration-response curves were fit to non-linear regression analysis on Prism 4.0 (GraphPad, San Diego, Calif.) for % maximal stimulation and EC50. […]

T1 sequence (P14867 28-456): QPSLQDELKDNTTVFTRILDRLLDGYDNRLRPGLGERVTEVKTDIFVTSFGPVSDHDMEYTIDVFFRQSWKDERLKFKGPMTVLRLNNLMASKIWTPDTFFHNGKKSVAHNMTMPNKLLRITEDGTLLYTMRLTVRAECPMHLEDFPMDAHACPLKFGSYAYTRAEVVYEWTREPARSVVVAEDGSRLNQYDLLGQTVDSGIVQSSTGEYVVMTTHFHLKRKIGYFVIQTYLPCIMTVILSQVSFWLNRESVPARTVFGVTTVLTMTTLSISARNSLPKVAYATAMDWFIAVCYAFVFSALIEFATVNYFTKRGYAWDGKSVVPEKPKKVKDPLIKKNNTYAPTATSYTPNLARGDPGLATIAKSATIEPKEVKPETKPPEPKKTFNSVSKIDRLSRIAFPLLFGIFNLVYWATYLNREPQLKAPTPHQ
T1 sequence (P18505 26-474): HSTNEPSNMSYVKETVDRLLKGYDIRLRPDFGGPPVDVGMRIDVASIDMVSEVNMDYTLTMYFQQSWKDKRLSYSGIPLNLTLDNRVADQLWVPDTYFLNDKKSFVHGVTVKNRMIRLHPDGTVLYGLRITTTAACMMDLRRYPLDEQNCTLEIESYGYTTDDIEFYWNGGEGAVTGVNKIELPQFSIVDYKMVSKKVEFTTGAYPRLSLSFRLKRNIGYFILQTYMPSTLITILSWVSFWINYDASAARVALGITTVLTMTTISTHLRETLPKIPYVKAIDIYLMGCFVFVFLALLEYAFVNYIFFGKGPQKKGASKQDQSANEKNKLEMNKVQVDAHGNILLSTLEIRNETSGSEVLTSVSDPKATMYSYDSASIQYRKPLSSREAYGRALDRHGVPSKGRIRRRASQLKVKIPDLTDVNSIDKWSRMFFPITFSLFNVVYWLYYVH
T1 sequence (P18507 40-475 partner): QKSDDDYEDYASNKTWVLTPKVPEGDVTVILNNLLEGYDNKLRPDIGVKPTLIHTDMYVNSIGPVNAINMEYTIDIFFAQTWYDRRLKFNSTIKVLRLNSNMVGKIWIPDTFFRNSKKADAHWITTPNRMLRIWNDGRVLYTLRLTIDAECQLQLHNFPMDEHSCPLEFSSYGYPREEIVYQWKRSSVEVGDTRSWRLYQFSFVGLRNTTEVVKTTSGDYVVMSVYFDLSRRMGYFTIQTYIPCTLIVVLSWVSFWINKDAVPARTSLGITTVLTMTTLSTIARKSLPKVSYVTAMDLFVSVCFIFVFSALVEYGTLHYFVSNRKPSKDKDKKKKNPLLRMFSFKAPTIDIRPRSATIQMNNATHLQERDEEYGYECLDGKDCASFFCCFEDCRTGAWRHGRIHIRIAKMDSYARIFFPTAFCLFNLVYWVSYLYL

One may read the melting point as the temperature of the solid-liquid transition. For `C[C@@]1(O)CC[C@@]2(C)[C@@H](CC[C@@H]3[C@@H]2CC[C@]2(C)[C@@H](c4cc(CO)no4)CC[C@@H]32)C1`, the melting point was 192 to 193 °C.
In general, IC50 refers to the concentration that gives 50% inhibition. The low end stands for inhibition by little substance, the high end for a need for much substance. As to `C[C@@]1(O)CC[C@@]2(C)[C@@H](CC[C@@H]3[C@@H]2CC[C@]2(C)[C@@H](c4cn5ccccc5n4)CC[C@@H]32)C1` [2-[3α-Hydroxy-3β-methyl-5α-androstan-17β-yl]-imidazo[1,2-a]pyridine], in data set [1], the 50% inhibitory concentration (IC50) came to 1000 nM and the “Imax (maximum percent inhibition)” value was 100%.
The ED50 is the dose at which the effect has come halfway, by size or by number of responders. A low value points to greater potency. With `C[C@@]1(O)CC[C@@]2(C)[C@@H](CC[C@@H]3[C@@H]2CC[C@]2(C)[C@@H](c4cc(CO)on4)CC[C@@H]32)C1` [3-[3α-hydroxy-3β-methyl-5α-androstan-17β-yl]-5-(hydroxymethyl)isoxazole], the melting point is 198.5 to 200 °C. For the same compound, in the data set with mice [2], the “minimum effective oral dose” value is reported as 1 mg/kg. For the same compound, the 50% effective dose (ED50) in data set [3] amounted to 4 mg/kg. Further, the “oral AD50 (ataxic half-maximal dose)” value with mice [4] is listed as 43 mg/kg.
On to `C[C@@]1(O)CC[C@@]2(C)[C@@H](CC[C@@H]3[C@@H]2CC[C@]2(C)[C@@H](c4ccno4)CC[C@@H]32)C1` [5-[3α-hydroxy-3β-methyl-5α-androstan-17β-yl]-isoxazole], for which, in data set [5], the maximum modulation is recorded as 400%.
